Measurements reported in paper PMC12281424, “A Rac-specific competitive inhibitor of guanine nucleotide binding reduces metastasis in triple-negative breast cancer” (Cell Reports Medicine, 2025).

What was measured:
GCK(h) = GCK(h) (Homo sapiens, UniProt Q12851); test: Kinase Profiler; format: biochemical
Method: (§1) The kinase profiler was performed by the company Eurofins (Discovery, Panlab and Cerep).

Abl (H396P) (h) = Abl (H396P) (h) (Homo sapiens, UniProt P00519, H396P); test: Kinase Profiler; format: biochemical
Method: as §1

DNA-PK(h) = DNA-PK(h) (Homo sapiens, UniProt P78527); test: Kinase Profiler; format: biochemical
Method: as §1

EGFR(L861Q)(h) = EGFR(L861Q)(h) (Homo sapiens, UniProt P00533, L861Q); test: Kinase Profiler; format: biochemical
Method: as §1

cKit(D816V)(h) = cKit(D816V)(h) (Homo sapiens, UniProt P10721, D816V); test: Kinase Profiler; format: biochemical
Chain of cKit(D816V)(h) (P10721 26-976 D816V): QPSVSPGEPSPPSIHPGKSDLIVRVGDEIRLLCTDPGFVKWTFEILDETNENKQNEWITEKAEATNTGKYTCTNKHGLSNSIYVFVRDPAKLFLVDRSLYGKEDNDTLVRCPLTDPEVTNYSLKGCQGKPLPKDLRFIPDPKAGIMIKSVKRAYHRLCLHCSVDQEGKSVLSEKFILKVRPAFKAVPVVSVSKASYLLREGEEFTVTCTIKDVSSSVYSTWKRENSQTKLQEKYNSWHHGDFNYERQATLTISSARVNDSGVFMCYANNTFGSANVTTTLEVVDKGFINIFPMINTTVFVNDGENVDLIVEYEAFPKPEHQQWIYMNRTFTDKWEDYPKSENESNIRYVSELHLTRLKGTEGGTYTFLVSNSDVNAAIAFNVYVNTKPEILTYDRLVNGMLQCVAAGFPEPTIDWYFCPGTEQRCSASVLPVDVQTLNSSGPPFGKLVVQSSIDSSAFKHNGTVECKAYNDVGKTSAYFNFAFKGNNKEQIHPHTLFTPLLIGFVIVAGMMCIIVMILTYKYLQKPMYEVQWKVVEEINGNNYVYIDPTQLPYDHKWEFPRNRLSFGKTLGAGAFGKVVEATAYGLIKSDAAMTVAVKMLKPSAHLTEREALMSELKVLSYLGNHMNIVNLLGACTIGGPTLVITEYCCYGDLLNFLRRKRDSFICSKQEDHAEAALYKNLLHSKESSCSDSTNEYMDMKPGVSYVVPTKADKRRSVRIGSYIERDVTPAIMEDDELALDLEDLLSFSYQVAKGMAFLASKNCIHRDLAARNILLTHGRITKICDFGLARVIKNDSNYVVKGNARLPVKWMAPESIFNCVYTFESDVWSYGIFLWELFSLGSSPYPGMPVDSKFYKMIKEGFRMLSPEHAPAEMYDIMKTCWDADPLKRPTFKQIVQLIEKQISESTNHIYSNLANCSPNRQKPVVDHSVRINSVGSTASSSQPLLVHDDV
Method: (§2) Blood cell counts, kinase profiler, safety screen, bacterial cytotoxicity, Ames, micronucleus assays were performed by the company Eurofins (France). The kinase profiler was performed by the company Eurofins (Discovery, Panlab and Cerep).

Bmx(h) = Bmx(h) (Homo sapiens, UniProt P51813); test: Kinase Profiler; format: biochemical
Method: as §2

IKKα(h) = IKKα(h) (Homo sapiens, UniProt O15111); test: Kinase Profiler; format: biochemical
Chain of IKKα(h) (O15111 whole entry): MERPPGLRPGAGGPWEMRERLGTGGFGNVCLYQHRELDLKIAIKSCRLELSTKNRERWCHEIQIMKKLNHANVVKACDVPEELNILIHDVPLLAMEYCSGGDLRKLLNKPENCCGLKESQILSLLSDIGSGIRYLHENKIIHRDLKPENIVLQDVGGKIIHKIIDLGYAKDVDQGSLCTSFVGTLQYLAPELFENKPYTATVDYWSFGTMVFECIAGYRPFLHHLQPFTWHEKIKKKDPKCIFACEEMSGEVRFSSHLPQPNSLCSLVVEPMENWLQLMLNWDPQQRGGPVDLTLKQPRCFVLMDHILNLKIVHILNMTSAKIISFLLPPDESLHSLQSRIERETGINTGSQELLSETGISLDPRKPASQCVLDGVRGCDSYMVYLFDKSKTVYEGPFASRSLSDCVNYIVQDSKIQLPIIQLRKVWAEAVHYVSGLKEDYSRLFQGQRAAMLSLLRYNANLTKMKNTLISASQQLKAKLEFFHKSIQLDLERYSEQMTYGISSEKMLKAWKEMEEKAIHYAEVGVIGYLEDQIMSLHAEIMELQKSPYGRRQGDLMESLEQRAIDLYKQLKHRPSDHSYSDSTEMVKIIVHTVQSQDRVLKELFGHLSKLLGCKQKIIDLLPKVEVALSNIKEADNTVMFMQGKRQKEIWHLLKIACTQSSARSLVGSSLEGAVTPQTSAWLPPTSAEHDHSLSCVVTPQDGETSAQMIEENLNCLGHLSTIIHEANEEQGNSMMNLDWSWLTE
Method: as §2

GRK7(h) = GRK7(h) (Homo sapiens, UniProt Q8WTQ7); test: Kinase Profiler; format: biochemical
Method: as §2

DMPK(h) = DMPK(h) (Homo sapiens, UniProt Q09013); test: Kinase Profiler; format: biochemical
Chain of DMPK(h) (Q09013 whole entry): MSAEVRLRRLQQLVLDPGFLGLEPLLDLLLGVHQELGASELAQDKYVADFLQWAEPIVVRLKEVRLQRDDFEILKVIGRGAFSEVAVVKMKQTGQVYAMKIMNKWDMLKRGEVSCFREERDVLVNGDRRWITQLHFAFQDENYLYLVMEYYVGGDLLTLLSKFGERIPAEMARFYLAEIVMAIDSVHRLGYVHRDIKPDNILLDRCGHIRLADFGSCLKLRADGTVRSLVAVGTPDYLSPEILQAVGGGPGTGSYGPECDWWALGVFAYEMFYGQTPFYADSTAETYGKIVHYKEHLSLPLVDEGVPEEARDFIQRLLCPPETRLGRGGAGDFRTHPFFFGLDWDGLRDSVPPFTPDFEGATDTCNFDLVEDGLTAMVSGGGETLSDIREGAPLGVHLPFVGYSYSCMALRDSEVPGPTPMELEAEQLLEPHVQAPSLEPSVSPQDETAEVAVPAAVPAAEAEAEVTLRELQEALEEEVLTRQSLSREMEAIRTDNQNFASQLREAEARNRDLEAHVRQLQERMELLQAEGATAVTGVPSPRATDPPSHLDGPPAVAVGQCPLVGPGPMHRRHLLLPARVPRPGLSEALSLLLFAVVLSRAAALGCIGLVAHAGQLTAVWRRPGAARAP
Method: as §2

TAO3(h) = TAO3(h) (Homo sapiens, UniProt Q9H2K8); test: Kinase Profiler; format: biochemical
Method: as §2

PKCδ(h) = PKCδ(h) (Homo sapiens, UniProt Q05655); test: Kinase Profiler; format: biochemical
Method: as §1

CDC42 = CDC42 (Homo sapiens, UniProt P60953); test: Surface plasmon resonance; format: binding; design: purchased Cytoskeleton CD01; settings: A41 0 to 25 μM
Chain of CDC42 (P60953 whole entry): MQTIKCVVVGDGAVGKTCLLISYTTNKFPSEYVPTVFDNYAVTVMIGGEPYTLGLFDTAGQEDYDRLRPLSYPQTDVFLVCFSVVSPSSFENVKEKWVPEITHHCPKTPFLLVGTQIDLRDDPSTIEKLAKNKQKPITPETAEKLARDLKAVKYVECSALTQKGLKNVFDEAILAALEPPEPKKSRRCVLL
Method: SPR immobilization was performed at 25°C. RAC1, RHOA and CDC42 purified proteins (respectively […] and CD01, Cytoskeleton) were diluted to 5 μg/mL in Na^+ acetate buffer (pH 5.0) and injected into sensor chip CM5 (GE Healthcare) in a Biacore T200 (GE Healthcare) that was activated with NHS/EDC buffer. Approximately 5,000 response units of the purified protein were immobilized on the biosensor chip. Biosensor chips were blocked by an injection of 1 mM ethanolamine (pH 8.5). SPR analysis was performed at 25°C in HBSEP running buffer (5% DMSO) with or without EDTA (20 mM). A41 compound was injected over the RAC1, RHOA or CDC42 functionalized surface in concentration range from 0 to 25μM. Association and dissociation phases were monitored during 60s and 300s, respectively.

MAPK2(m) = MAPK2(m) (Mus musculus, UniProt P63085); test: Kinase Profiler; format: biochemical
Chain of MAPK2(m) (P63085 2-358 limits assumed): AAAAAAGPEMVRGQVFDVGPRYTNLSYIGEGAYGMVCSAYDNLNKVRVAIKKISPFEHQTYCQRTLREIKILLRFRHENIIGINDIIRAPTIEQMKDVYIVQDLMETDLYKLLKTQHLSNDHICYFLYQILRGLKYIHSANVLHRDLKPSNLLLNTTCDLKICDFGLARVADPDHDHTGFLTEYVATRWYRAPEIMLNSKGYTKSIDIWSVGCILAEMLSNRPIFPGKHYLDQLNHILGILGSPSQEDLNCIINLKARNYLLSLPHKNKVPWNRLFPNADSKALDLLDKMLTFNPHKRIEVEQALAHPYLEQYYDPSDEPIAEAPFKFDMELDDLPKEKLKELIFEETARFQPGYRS
Method: as §1

EphA7(h) = EphA7(h) (Homo sapiens, UniProt Q15375); test: Kinase Profiler; format: biochemical
Chain of EphA7(h) (Q15375 28-998): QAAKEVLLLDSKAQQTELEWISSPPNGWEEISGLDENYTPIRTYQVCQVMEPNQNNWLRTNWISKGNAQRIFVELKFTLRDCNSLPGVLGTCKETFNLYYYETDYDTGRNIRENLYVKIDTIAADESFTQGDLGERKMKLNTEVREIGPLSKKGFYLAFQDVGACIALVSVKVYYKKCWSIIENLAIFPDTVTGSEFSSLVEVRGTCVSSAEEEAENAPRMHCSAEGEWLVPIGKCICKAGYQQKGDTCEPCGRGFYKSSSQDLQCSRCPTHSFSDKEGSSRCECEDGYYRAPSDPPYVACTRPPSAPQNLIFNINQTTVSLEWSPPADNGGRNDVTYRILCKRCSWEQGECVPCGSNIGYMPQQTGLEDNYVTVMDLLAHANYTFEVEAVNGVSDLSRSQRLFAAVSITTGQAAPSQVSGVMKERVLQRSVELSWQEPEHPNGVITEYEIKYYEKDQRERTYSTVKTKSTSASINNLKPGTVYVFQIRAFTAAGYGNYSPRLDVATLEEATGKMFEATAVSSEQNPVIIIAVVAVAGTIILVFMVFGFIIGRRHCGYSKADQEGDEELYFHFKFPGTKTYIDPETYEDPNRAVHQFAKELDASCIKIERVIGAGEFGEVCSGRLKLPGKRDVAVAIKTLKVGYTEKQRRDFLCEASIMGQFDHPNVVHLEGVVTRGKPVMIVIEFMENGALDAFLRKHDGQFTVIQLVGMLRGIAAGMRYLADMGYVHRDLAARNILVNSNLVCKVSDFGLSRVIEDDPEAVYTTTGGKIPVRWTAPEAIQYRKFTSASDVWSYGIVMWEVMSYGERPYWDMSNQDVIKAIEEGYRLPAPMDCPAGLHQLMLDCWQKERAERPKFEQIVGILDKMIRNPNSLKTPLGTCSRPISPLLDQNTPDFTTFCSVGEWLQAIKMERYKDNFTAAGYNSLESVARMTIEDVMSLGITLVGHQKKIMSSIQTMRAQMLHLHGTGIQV
Method: as §2

Chain of GCK(h) (Q12851 whole entry): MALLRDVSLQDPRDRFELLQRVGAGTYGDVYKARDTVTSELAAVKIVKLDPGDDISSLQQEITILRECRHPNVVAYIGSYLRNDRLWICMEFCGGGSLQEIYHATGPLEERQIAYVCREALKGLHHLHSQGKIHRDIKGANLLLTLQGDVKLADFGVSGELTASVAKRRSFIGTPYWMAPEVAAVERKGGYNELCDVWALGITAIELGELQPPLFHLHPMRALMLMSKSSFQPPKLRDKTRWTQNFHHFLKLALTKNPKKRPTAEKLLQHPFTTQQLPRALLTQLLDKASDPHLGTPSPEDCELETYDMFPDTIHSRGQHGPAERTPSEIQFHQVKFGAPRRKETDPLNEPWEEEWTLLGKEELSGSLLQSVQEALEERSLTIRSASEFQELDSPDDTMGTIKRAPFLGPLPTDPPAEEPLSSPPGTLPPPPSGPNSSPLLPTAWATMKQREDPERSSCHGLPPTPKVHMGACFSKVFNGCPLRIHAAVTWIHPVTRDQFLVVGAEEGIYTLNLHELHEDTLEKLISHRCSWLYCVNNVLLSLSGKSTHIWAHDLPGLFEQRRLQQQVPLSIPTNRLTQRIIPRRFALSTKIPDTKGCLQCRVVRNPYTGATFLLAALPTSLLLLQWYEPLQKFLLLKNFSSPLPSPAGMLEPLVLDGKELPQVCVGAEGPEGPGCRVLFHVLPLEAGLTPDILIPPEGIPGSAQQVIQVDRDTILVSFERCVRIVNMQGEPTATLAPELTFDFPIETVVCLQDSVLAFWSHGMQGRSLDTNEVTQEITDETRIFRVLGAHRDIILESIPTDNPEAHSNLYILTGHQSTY

Structure (SMILES): COc1ccc(OC)c(NS(=O)(=O)c2ccc(NC(=O)CCSc3ccc(C)cc3)cc2)c1 [Compound A41]
- Activity(%) (GCK(h)): 114%
- Activity(%) (Abl (H396P) (h)): 92%
- Activity(%) (DNA-PK(h)): 122%
- Activity(%) (EGFR(L861Q)(h)): 107%
- Activity(%) (cKit(D816V)(h)): 88%
- Activity(%) (Bmx(h)): 124%
- Activity(%) (IKKα(h)): 107%
- Activity(%) (GRK7(h)): 100%
- Activity(%) (DMPK(h)): 98%
- Activity(%) (TAO3(h)): 97%
- Activity(%) (PKCδ(h)): 110%
- binding (CDC42): No binding was measured
- Activity(%) (MAPK2(m)): 108%
- Activity(%) (EphA7(h)): 108%
